Where two headings read alike, the source gives them in different places. Values belong to the compound of their own block, whether it stands above or below them.
What was measured:
[1] = target: T1, trypsin-like activity of the 20S proteasome (Oryctolagus cuniculus, UniProt G1SWK8); assay: In vitro purified rabbit muscle 20S proteasome assay, trypsin-like (T-L) activity, Boc-LRR-AMC substrate; type: biochemical
T1 construct: In Vitro Purified Rabbit Muscle 20S Proteasome Activity Assays; from tissue; host or cells: rabbit muscle
T1 sequence (G1SWK8 1-271): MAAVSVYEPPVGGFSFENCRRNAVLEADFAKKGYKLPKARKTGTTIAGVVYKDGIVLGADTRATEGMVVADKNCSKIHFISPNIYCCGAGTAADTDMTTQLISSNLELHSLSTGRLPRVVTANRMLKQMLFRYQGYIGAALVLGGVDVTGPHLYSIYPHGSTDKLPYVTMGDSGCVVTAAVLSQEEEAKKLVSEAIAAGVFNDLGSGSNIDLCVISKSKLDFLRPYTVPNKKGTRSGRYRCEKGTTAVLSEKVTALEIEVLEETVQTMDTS
Method: (§1) Serial diluted test compounds were added in duplicate to 1 μg/ml purified rabbit 20S proteasome in assay buffer containing 20 mM HEPES, pH7.3, 0.5 mM EDTA, 0.05% Triton X-100 and 0.035% SDS and pre-incubated for 5 min at 37° C. Reactions were initiated by the addition of the Suc-LLVY-AMC peptide substrate at a final concentration of 20 μM. Fluorescence of the cleaved peptide substrate was measured at λex=390 nm and λem=460 nm using a Fluoroskan Ascent 96-well microplate reader (Thermo Electron, Waltham, Mass.). […] The caspase-like activity of the 20S proteasome was determined as described above except that Z-LLEAMC was used as the peptide substrate. For the evaluation of the trypsin-like activity, the SDS was omitted from the assay buffer and Boc-LRR-AMC was used as the peptide substrate.

RPMI 8226 = assay: Cytotoxicity in RPMI 8226; details: Homo sapiens, RPMI-8226, read-out: Cytotoxicity in RPMI 8226 Average IC50 ± SD (nM)
[2] = target: T2, chymotrypsin-like activity of the 20S proteasome (Oryctolagus cuniculus, UniProt G1T4Q9); assay: In vitro purified rabbit muscle 20S proteasome assay, chymotrypsin-like (CT-L) activity, Suc-LLVY-AMC substrate; type: biochemical
T2 construct: In Vitro Purified Rabbit Muscle 20S Proteasome Activity Assays; from tissue; host or cells: rabbit muscle
T2 sequence (G1T4Q9 1-263): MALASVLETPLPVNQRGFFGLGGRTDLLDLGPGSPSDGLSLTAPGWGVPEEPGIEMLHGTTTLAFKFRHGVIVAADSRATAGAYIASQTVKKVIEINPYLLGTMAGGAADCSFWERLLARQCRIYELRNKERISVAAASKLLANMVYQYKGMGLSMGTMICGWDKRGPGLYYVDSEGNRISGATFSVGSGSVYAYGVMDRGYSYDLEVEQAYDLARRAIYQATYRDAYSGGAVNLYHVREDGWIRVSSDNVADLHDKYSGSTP
Method: as §1

[3] = target: T3, caspase-like activity of the 20S proteasome (Oryctolagus cuniculus, UniProt A0A5F9DQW2); assay: In vitro purified rabbit muscle 20S proteasome assay, caspase-like (C-L) activity, Z-LLEAMC substrate; type: biochemical
T3 construct: In Vitro Purified Rabbit Muscle 20S Proteasome Activity Assays; from tissue; host or cells: rabbit muscle
T3 sequence (A0A5F9DQW2 1-212): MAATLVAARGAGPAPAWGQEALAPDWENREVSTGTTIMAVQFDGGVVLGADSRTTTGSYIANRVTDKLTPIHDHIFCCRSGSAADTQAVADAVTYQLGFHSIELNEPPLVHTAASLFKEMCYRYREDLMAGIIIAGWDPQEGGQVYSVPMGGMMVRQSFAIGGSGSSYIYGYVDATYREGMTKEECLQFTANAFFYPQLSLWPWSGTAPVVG
Method: as §1

[4] = rabbit 20S proteasome, mean ± SD of 3 or more experiments, read-out: T-L IC50
[5] = rabbit 20S proteasome, mean ± SD of 3 or more experiments, read-out: CT-L IC50
[6] = rabbit 20S proteasome, mean ± SD of 3 or more experiments, read-out: C-L IC50

SMILES: C[C@@]12OC(=O)[C@]1([C@@H](O)[C@@H]1C=CCCC1)NC(=O)[C@@H]2CCF [CH2CH2F]
IC50 [1, 4]: 0.525 ± 0.015 µM | IC50 (RPMI 8226): 875 ± 430 nM | IC50 [2, 5]: 0.01 ± 0.0007 µM | IC50 [3, 6]: 0.781 ± 0.047 µM

SMILES: CN(C)c1cccc2c(S(=O)(=O)OCC[C@H]3C(=O)N[C@@]4([C@@H](O)[C@@H]5C=CCCC5)C(=O)O[C@@]34C)cccc12 [CH2CH2ODs]
IC50 [1]: 0.012 ± 0.0023 µM | IC50 (RPMI 8226): 30 ± 6 nM | IC50 [2]: 0.003 ± 0.0005 µM | IC50 [3]: 0.09 ± 0.011 µM

SMILES: Cc1ccc(S(=O)(=O)OCC[C@H]2C(=O)N[C@@]3([C@@H](O)[C@@H]4C=CCCC4)C(=O)O[C@@]23C)cc1 [CH2CH2OTs]
IC50 [1]: 0.0099 ± 0.0002 µM | IC50 (RPMI 8226): 27 ± 8.5 nM | IC50 [2]: 0.0025 ± 0.0004 µM | IC50 [3]: 0.127 ± 0.005 µM

SMILES: C[C@@]12OC(=O)[C@]1([C@@H](O)[C@@H]1C=CCCC1)NC(=O)[C@@H]2CCBr [CH2CH2Br]
IC50 [1, 4]: 0.014 ± 0.002 µM | IC50 (RPMI 8226): 7.8 ± 1.4 nM | IC50 [2, 5]: 0.0026 ± 0.0004 µM | IC50 [3, 6]: 0.29 ± 0.06 µM

SMILES: CC(C)(C)c1ccc(S(=O)(=O)OCC[C@H]2C(=O)N[C@@]3([C@@H](O)[C@@H]4C=CCCC4)C(=O)O[C@@]23C)cc1
IC50 [1]: 0.031 ± 0.001 µM | IC50 (RPMI 8226): 94 ± 18 nM | IC50 [2]: 0.0032 ± 0.0004 µM | IC50 [3]: 0.18 ± 0.004 µM

SMILES: C[C@@]12OC(=O)[C@]1([C@@H](O)[C@@H]1C=CCCC1)NC(=O)[C@@H]2CCOS(C)(=O)=O [CH2CH2OMs]
IC50 [1]: 0.065 ± 0.008 µM | IC50 (RPMI 8226): 144 ± 46 nM | IC50 [2]: 0.0043 ± 0.0008 µM | IC50 [3]: 0.873 ± 0.032 µM

SMILES: C[C@H]1C(=O)N[C@@]2([C@@H](O)[C@@H]3C=CCCC3)C(=O)O[C@@]12C [CH3]
IC50 [1, 4]: 0.37 ± 0.044 µM | IC50 (RPMI 8226): 6300 nM | IC50 [2, 5]: 0.0075 ± 0.0006 µM | IC50 [3, 6]: 0.46 ± 0.049 µM

SMILES: CCC[C@H]1C(=O)N[C@@]2([C@@H](O)[C@@H]3C=CCCC3)C(=O)O[C@@]12C [CH2CH2CH3]
IC50 [1, 4]: 1.1 ± 0.2 µM | IC50 (RPMI 8226): 6300 nM | IC50 [2, 5]: 0.024 ± 0.005 µM | IC50 [3, 6]: 1.2 ± 0.2 µM

SMILES: C[C@@]12OC(=O)[C@]1([C@@H](O)[C@@H]1C=CCCC1)NC(=O)[C@@H]2CCI [CH2CH2I]
IC50 [1, 4]: 0.013 ± 0.003 µM | IC50 (RPMI 8226): 6.9 ± 0.9 nM | IC50 [2, 5]: 0.0028 ± 0.0005 µM | IC50 [3, 6]: 0.41 ± 0.23 µM

IC50 [1, 4]: 1.2 ± 0.15 µM | IC50 [2, 5]: 0.014 ± 0.0015 µM | IC50 [3, 6]: 1.2 ± 0.057 µM
SMILES: C[C@@]12OC(=O)[C@]1([C@@H](O)[C@@H]1C=CCCC1)NC(=O)[C@@H]2CCO [CH2CH2OH]
IC50 (RPMI 8226): 38000 nM

SMILES: C[C@@]12OC(=O)[C@]1([C@@H](O)[C@@H]1C=CCCC1)NC(=O)[C@@H]2CCOS(=O)(=O)c1ccc(-c2ccccc2)cc1
IC50 [1]: 0.015 ± 0.001 µM | IC50 (RPMI 8226): 43 ± 12 nM | IC50 [2]: 0.0038 ± 0.0001 µM | IC50 [3]: 0.101 ± 0.011 µM

SMILES: CC[C@H]1C(=O)N[C@@]2([C@@H](O)[C@@H]3C=CCCC3)C(=O)O[C@@]12C [CH2CH3]
IC50 [1, 4]: 0.61 ± 0.035 µM | IC50 (RPMI 8226): 6300 nM

SMILES: CC(=O)OCC[C@H]1C(=O)N[C@@]2([C@@H](O)[C@@H]3C=CCCC3)C(=O)O[C@@]12C [CH2CH2OC(O)CH3]
IC50 [1]: 0.745 ± 0.04 µM | IC50 (RPMI 8226): 20000 nM | IC50 [2]: 0.0091 ± 0.0003 µM | IC50 [3]: 0.971 ± 0.056 µM

SMILES: C[C@@]12OC(=O)[C@]1([C@@H](O)[C@@H]1C=CCCC1)NC(=O)[C@@H]2CCOC(=O)c1ccc(-c2ccccc2)cc1
IC50 [1]: 0.052 ± 0.005 µM | IC50 (RPMI 8226): 290 ± 108 nM | IC50 [2]: 0.009 ± 0.002 µM | IC50 [3]: 0.16 ± 0.009 µM

SMILES: C[C@@]12OC(=O)[C@]1([C@@H](O)[C@@H]1C=CCCC1)NC(=O)[C@@H]2CCCl [CH2CH2Cl, Salinosporamide A, reference compound]
IC50 (RPMI 8226): 9.8 ± 3 nM

SMILES: C[C@@]12OC(=O)[C@]1([C@@H](O)[C@@H]1C=CCCC1)NC(=O)[C@@H]2CCOS(=O)(=O)c1ccc(Oc2ccccc2)cc1
IC50 [1]: 0.014 ± 0.001 µM | IC50 (RPMI 8226): 78 ± 25 nM | IC50 [2]: 0.0032 ± 0.0002 µM | IC50 [3]: 0.085 ± 0.009 µM
